Data from ChEMBL document CHEMBL5154863, “Design and synthesis of quinolinium-based derivatives targeting FtsZ for antibacterial evaluation and mechanistic study” (Eur J Med Chem, 2022).
The source made the active and inactive calls. No cut-off for these calls is given here.

Assays:
[1] = Ratio of MBC for bactericidal activity against Enterococcus faecium ATCC 700221 to MIC for antibacterial activity against Enterococcus faecium ATCC 700221; format: functional
[2] = molecular target: T1, Cell division protein FtsZ (Staphylococcus aureus) (UniProt P0A031); assay: Induction of Staphylococcus aureus FtsZ polymerization expressed in Escherichia coli BL21 (DE3) assessed as increase in absorbance at 2 to 8 ug/ml in presence of GTP by microplate reader method; details: dose 2-8 µg/ml, DDE = dose-dependent effect
T1 sequence (whole entry): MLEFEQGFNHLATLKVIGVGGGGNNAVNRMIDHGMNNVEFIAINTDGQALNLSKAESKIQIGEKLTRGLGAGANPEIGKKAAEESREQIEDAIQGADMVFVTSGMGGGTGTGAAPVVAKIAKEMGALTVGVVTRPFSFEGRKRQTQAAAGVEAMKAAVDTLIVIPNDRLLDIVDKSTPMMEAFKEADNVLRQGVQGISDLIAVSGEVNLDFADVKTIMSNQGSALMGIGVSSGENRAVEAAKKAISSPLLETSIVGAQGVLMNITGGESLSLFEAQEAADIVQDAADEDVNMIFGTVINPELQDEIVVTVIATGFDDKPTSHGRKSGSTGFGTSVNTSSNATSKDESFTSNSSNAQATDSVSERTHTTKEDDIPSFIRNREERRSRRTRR

Staphylococcus aureus [3] = assay: Antibacterial activity against Staphylococcus aureus ATCC 29213 assessed as inhibition of bacterial growth incubated for 20 to 24 hrs by broth micro dilution method; format: functional; details: time 20-24 hrs
Staphylococcus aureus [4] = assay: Antibacterial activity against methicillin-resistant Staphylococcus aureus ATCC 33592 assessed as inhibition of bacterial growth incubated for 20 to 24 hrs by broth micro dilution method; format: functional; details: time 20-24 hrs
Staphylococcus aureus [5] = assay: Antibacterial activity against methicillin-resistant Staphylococcus aureus ATCC BAA-1720 assessed as inhibition of bacterial growth incubated for 20 to 24 hrs by broth micro dilution method; format: functional; details: time 20-24 hrs
Staphylococcus aureus [6] = assay: Antibacterial activity against vancomycin-intermediate Staphylococcus aureus Mu50 assessed as inhibition of bacterial growth incubated for 20 to 24 hrs by broth micro dilution method; format: functional; details: time 20-24 hrs
[7] = system: Staphylococcus epidermidis; assay: Antibacterial activity against Staphylococcus epidermidis ATCC 12228 assessed as inhibition of bacterial growth incubated for 20 to 24 hrs by broth micro dilution method; format: functional; details: time 20-24 hrs
Enterococcus faecium [8] = assay: Antibacterial activity against Enterococcus faecium ATCC 49624 assessed as inhibition of bacterial growth incubated for 20 to 24 hrs by broth micro dilution method; format: functional; details: time 20-24 hrs
Enterococcus faecium [9] = assay: Antibacterial activity against vancomycin resistant Enterococcus faecium ATCC 700221 assessed as inhibition of bacterial growth incubated for 20 to 24 hrs by broth micro dilution method; format: functional; details: time 20-24 hrs
Enterococcus faecium [10] = assay: Antibacterial activity against vancomycin-resistant Enterococcus faecium clinical isolate assessed as inhibition of bacterial growth incubated for 20 to 24 hrs by broth micro dilution method; format: functional; details: time 20-24 hrs
Escherichia coli = assay: Antibacterial activity against Escherichia coli ATCC 25922 assessed as inhibition of bacterial growth incubated for 20 to 24 hrs by broth micro dilution method; format: functional; details: time 20-24 hrs
Acinetobacter baumannii = assay: Antibacterial activity against multi-drug resistant Acinetobacter baumannii ATCC 19606 assessed as inhibition of bacterial growth incubated for 20 to 24 hrs by broth micro dilution method; format: functional; details: time 20-24 hrs
Pseudomonas aeruginosa = assay: Antibacterial activity against […] Pseudomonas aeruginosa ATCC 27853 assessed as inhibition of bacterial growth incubated for 20 to 24 hrs by broth micro dilution method; format: functional; details: time 20-24 hrs
Klebsiella pneumoniae = assay: Antibacterial activity against NDM-1 expressing Klebsiella pneumoniae ATCC BAA 2470 assessed as inhibition of bacterial growth incubated for 20 to 24 hrs by broth micro dilution method; format: functional; details: time 20-24 hrs
Staphylococcus aureus [11] = assay: Bactericidal activity against Staphylococcus aureus ATCC 29213 assessed as inhibition of bacterial growth incubated for 24 hrs by resazurin dye based microtiter plate assay; format: functional
Staphylococcus aureus [12] = assay: Bactericidal activity against Staphylococcus aureus ATCC 43300 assessed as inhibition of bacterial growth incubated for 24 hrs by resazurin dye based microtiter plate assay; format: functional
Enterococcus faecium [13] = assay: Bactericidal activity against Enterococcus faecium ATCC 700221 assessed as inhibition of bacterial growth incubated for 24 hrs by resazurin dye based microtiter plate assay; format: functional
[14] = Ratio of MBC for bactericidal activity against Staphylococcus aureus ATCC 29213 to MIC for antibacterial activity against Staphylococcus aureus ATCC 29213; format: functional
[15] = Ratio of MBC for bactericidal activity against Staphylococcus aureus ATCC 43300 to MIC for antibacterial activity against Staphylococcus aureus ATCC 43300; format: functional
Staphylococcus aureus [16] = assay: Antibacterial activity against Staphylococcus aureus ATCC 29213 assessed reduction in viable bacterial count upto 4 times MIC measured after 8 hrs by time-kill kinetics assay; format: functional
Staphylococcus aureus [17] = assay: Antibacterial activity against Staphylococcus aureus ATCC 29213 assessed as assessed as reduction in viable bacterial count upto 8 times MIC measured after 8 hrs by time-kill kinetics assay; format: functional
Staphylococcus aureus [18] = assay: Antibacterial activity against methicillin-resistant Staphylococcus aureus ATCC BAA41 assessed as fractional inhibitory concentration index incubated for 24 hrs by checker board assay; format: functional
Staphylococcus aureus [19] = assay: Antibacterial activity against methicillin-resistant Staphylococcus aureus ATCC BAA41 assessed as inhibition of bacterial growth incubated for 24 hrs by checker board assay; format: functional
Staphylococcus aureus [20] = assay: Synergistic antibacterial activity against methicillin-resistant Staphylococcus aureus ATCC BAA41 assessed as inhibition of bacterial growth incubated for 24 hrs in presence of methicillin by checker board assay; format: functional
Bacillus subtilis [21] = assay: Induction of morphological changes in Bacillus subtilis CMCC (B) 63501 assessed as elongation of bacterial cell at 0.5 times MIC for 4 hrs (reference value: 3 to 5 um) by microscopic analysis; format: functional
[22] = molecular target: T1, Cell division protein FtsZ (Staphylococcus aureus); assay: Induction of Staphylococcus aureus FtsZ polymerization expressed in Escherichia coli BL21 (DE3) assessed as increase in absorbance at 2 to 8 ug/ml by microplate reader method; details: dose 2-8 µg/ml
[23] = molecular target: T1, Cell division protein FtsZ (Staphylococcus aureus); assay: Binding affinity to Staphylococcus aureus FtsZ assessed as decrease in beta turn structure at 8 ug/ml incubated for 30 mins by circular dichroism method (reference value: 17.4 %); design: scale not given: the % may be the effect or the level left; details: dose 8.0 µg/ml
[24] = molecular target: T1, Cell division protein FtsZ (Staphylococcus aureus); assay: Binding affinity to Staphylococcus aureus FtsZ assessed as equilibrium binding constant by isothermal titration calorimetry
[25] = molecular target: T2, Cell division protein FtsZ (Staphylococcus aureus, UniProt P0A031); assay: Binding affinity to Staphylococcus aureus FtsZ assessed as dissociation constant by isothermal titration calorimetry
T2 sequence (P0A031 whole entry): T1 sequence (whole entry)

Erythrocyte = assay: Hemolytic activity in Kunming mouse erythrocyte at 1 to 64 ug/ml incubated for 1 hr; format: toxicity, cell-based; details: dose 1-64 µg/ml
[26] = Cytotoxicity against mouse L929 cells incubated for 48 hrs by MTT assay; format: toxicity, cell-based
Staphylococcus aureus [27] = assay: Antibacterial activity against Staphylococcus aureus ATCC 29213 infected in L929 cells assessed as inhibition of bacterial growth incubated for 20 to 24 hrs by broth micro dilution method; format: functional; details: time 20-24 hrs
Staphylococcus aureus [28] = assay: Induction of drug resistance against Staphylococcus aureus ATCC 29213 assessed as fold increase in MIC after 16 passage; format: functional
Bacillus subtilis [29] = assay: Induction of drug resistance against Bacillus subtilis CMCC (B) 63501 measured after 16 passages; format: functional; details: dose <= 64.0 µg/ml, time 30.0 min

Q: With CC1CCN(c2cc(/C=C/c3ccc(N(C)C)cc3)[n+](C)c3ccccc23)CC1.[I-] as the compound, how does the Ratio [1] read?
A: 4

Q: And the Activity [2]?
A: Dde

Q: What about the MIC (Staphylococcus aureus [3]) of the same compound?
A: 1 µg/mL

Q: What about the MIC (Staphylococcus aureus [4]) of the same compound?
A: 0.5 µg/mL

Q: And the MIC (Staphylococcus aureus [5])?
A: 1 µg/mL

Q: What about the MIC (Staphylococcus aureus [6]) of the same compound?
A: 1 µg/mL

Q: What about the MIC [7] of the same compound?
A: 0.25 µg/mL

Q: What about the MIC (Enterococcus faecium [8]) of the same compound?
A: 8 µg/mL

Q: And the MIC (Enterococcus faecium [9])?
A: 1 µg/mL

Q: What about the MIC (Enterococcus faecium [10]) of the same compound?
A: 4 µg/mL

Q: And the MIC (Escherichia coli)?
A: 8 µg/mL

Q: And the MIC (Acinetobacter baumannii)?
A: > 64 µg/mL

Q: What about the MIC (Pseudomonas aeruginosa) of the same compound?
A: > 64 µg/mL

Q: And the MIC (Klebsiella pneumoniae)?
A: > 64 µg/mL

Q: What about the MBC (Staphylococcus aureus [11]) of the same compound?
A: 8 µg/mL

Q: What about the MBC (Staphylococcus aureus [12]) of the same compound?
A: 8 µg/mL

Q: What about the MBC (Enterococcus faecium [13]) of the same compound?
A: 4 µg/mL

Q: And the Ratio [14]?
A: >4

Q: What about the Ratio [15] of the same compound?
A: >4

Q: And the Activity (Staphylococcus aureus [16])?
A: 1000 CFU/ml

Q: What about the Activity (Staphylococcus aureus [17]) of the same compound?
A: 1000 CFU/ml

Q: What about the “fractional inhibitory concentration index (FICI)” value (Staphylococcus aureus [18]) of the same compound?
A: 0.3125

Q: And the MIC (Staphylococcus aureus [19])?
A: 8 µg/mL

Q: What about the MIC (Staphylococcus aureus [20]) of the same compound?
A: 2 µg/mL

Q: And the Activity (Bacillus subtilis [21])?
A: 70 um

Q: And the Activity [22]?
A: Active

Q: And the Activity [23]?
A: 15.5%

Q: What about the Kb [24] of the same compound?
A: 4.41 10^5/M

Q: And the Kd [25]?
A: 3.84 µM

Q: What about the IC5 (Erythrocyte) of the same compound?
A: 64 µg/mL

Q: And the IC50 at 48 h [26]?
A: 12.8 µg/mL

Q: What about the MIC (Staphylococcus aureus [27]) of the same compound?
A: 1 µg/mL

Q: And the fold change (FC) (Staphylococcus aureus [28])?
A: 8

Q: And the Activity (Bacillus subtilis [29])?
A: Active
